Assay results from patent US5374634A, “Pyridine derivatives” (Kyowa Hakko Kogyo Co., Ltd., priority 1992, dated 1994).

System: PTH-induced calcium release (i.e. bone resorption) from bones (calvaria)
Assay: Bone resorption-inhibiting effect: inhibition of PTH-induced calcium release from cultured calvaria
Format: cell-based, dd mice (5- to 6-day-old)
Conditions: mouse half calvaria culture; PTH 1×10^-8 M; calcium in medium at 96 hours; test compound 3×10^-6, 1×10^-5, 3×10^-5 M
Protocol: The bone resorption-inhibiting effect of the compounds of the present invention is illustrated by the following experiment.
Calvaria were aseptically removed from 5- to 6-day-old dd mice, washed with Dulbecco's modified phosphate-buffered saline not containing calcium and magnesium (product of Gibco Oriental Co.), and cut along the sagittal suture into left and right halves. Each half calvarium was cultured in 1.5 ml medium consisting of Dulbecco's modified Eagle medium (high glucose) (product of Gibco Oriental Co.) supplemented with 15% heat-inactivated (at 56° C. for 20 minutes) horse serum, 2.5% heat-inactivated fetal bovine serum, plus 1% antibiotic-antimycotic liquid. The test compound was dissolved in dimethylsulfoxide, and a 10 μl portion of the solution was added to the culture to the final concentrations of 3×10^-6 M, 1×10^-5 M and 3×10^-5 M. PTH (parathyroid hormone) was dissolved in 0.15M sodium chloride (pH 3), and a 3 μl-portion of the resulting solution was added to the culture to the final concentration of 1×10^-8 M. Cultures were incubated at 37° C. in a water-saturated atmosphere consisting of 5% CO2 and 95% air. Typically, cultures were maintained for 96 hours and the media were changed at 48 hours. The test compound and PTH which had been processed in the same manner as described above were added thereto. In order to investigate the action of the test compound on PTH-induced calcium release (i.e. bone resorption) from bones, there were prepared 3 groups: control group, PTH treated group (1×10^-8 M) and test compound- and PTH-treated group (3×10^-6 M, 1×10^-5 M, 3×10^-5 M). Bone resorption was assessed by measuring the accumulation of calcium in the culture media collected at 96 hours of culturing. The total calcium concentrations were determined using Calcium C-Test Wako (product of Wako). The inhibition rate was calculated therefrom according to the equation given below and 50% inhibitory concentration (IC50) was determined. [formula] CO : Total calcium concentration in the culture free from both PTH and test compound
Cp : Total calcium concentration in the culture treated with PTH only
CD : Total calcium concentration in the culture treated with both PTH and test compound.

IC50 [µM]	SMILES
18.6	O=C(NC12CC3CC(CC1C3)C2)c1ccncc1C(c1ccc(O)cc1)c1ccc(O)cc1 [Compound 9, N-(Tricyclo[3.3.1.0^3,7]non-3-yl)-3-[bis(4-hydroxyphenyl)methyl]-4-pyridinecarboxamide]
19.2	O=C(c1ccncc1C(c1ccc(O)cc1)c1ccc(O)cc1)N1CCCCC1 [Compound 10]
20.3	O=C(NC12CC3CC(CC(C3)C1)C2)c1ccncc1C(c1ccc(O)cc1)c1ccc(O)cc1 [Compound 11, N-(Tricyclo[3.3.1.1^3,7]dec-1-yl)-3-[bis(4-hydroxyphenyl)methyl]-4-pyridinecarboxamide]
11.6	O=C(NC1CCCCCCC1)c1ccncc1C(c1ccc(O)cc1)c1ccc(O)cc1 [Compound 12, N-Cyclooctyl-3-[bis(4-hydroxyphenyl)methyl]-4-pyridinecarboxamide]
75.6	O=C(Nc1ccc(O)cc1)c1ccncc1C(c1ccc(O)cc1)c1ccc(O)cc1 [Compound 15, N-(4-Hydroxyphenyl)-3-[bis(4-hydroxyphenyl)methyl]-4-pyridinecarboxamide]
7.1	O=C(c1ccncc1C(c1ccc(O)cc1)c1ccc(O)cc1)N1CCN(c2cccc(C(F)(F)F)c2)CC1 [Compound 16, 1-(3-Trifluoromethylphenyl)-4-{[3-bis(4-hydroxyphenyl)methyl]isonicotinyl}piperazine]
24.9	O=C(c1ccncc1C(c1ccc(O)cc1)c1ccc(O)cc1)N1CCN(c2ccc(Cl)cc2)CC1 [Compound 17, 1-(4-Chlorophenyl)-4-{[3-bis(4-hydroxyphenyl)methyl]isonicotinyl}piperazine]
8.9	O=C(c1ccncc1C(c1ccc(O)cc1)c1ccc(O)cc1)N1CCN(c2ccccc2O)CC1 [Compound 19, 1-(2-Hydroxyphenyl)-4-{[3-bis(4-hydroxyphenyl)methyl]isonicotinyl}piperazine]
75.6	O=C(c1ccncc1C(c1ccc(O)cc1)c1ccc(O)cc1)N1CCN(c2ccccc2)CC1 [Compound 20, 1-Phenyl-4-{[3-bis(4-hydroxyphenyl)methyl]isonicotinyl}piperazine]
8.5	Cc1cccc(N2CCN(C(=O)c3ccncc3C(c3ccc(O)cc3)c3ccc(O)cc3)CC2)c1 [Compound 21, 1-(3-Methylphenyl)-4-{[3-bis(4-hydroxyphenyl)methyl]isonicotinyl}piperazine]
19.6	O=C(c1ccncc1C(c1ccc(O)cc1)c1ccc(O)cc1)N1CCN(c2ncccn2)CC1 [Compound 22, 1-(2-Pyrimidyl)-4-{[3-bis(4-hydroxyphenyl)methyl]isonicotinyl}piperazine]

SMILES	IC50 [µM]
O=C(c1ccncc1C(c1ccc(O)cc1)c1ccc(O)cc1)N1CCN(c2ccccc2Cl)CC1 [Compound 13, 1-(2-Chlorophenyl)-4-{[3--bis(4,hydroxyphenyl)methyl]isonicotinyl}piperazine]	6
O=C(c1ccncc1C(c1ccc(O)cc1)c1ccc(O)cc1)N1CCN(c2cccc(Cl)c2)CC1 [Compound 18, 1-(3-Chlorophenyl)-4-{[3-bis(4-hydroxyphenyl)methyl]isonicotinyl}piperazine]	14

System: dd-strain male mice
Assay: Acute toxicity test (oral, minimum lethal dose)
Format: in vivo
Conditions: mortality observed for 7 days
Protocol: A test compound was orally administered to three dd-strain male mice weighing 20±1 g. The minimum lethal dose (MLD) was determined by observing the mortality for 7 days after the administration.

SMILES	MLD (minimum lethal dose) [mg/kg]
COc1ccc(C(c2ccc(OC)cc2)c2cnccc2C(=O)N2CCN(c3ccccc3Cl)CC2)cc1 [Compound 6, 1-(2-Chlorophenyl)-4-{[3-bis(4-methoxyphenyl)methyl]-isonicotinyl}piperazine]	> 300
O=C(c1ccncc1C(c1ccc(O)cc1)c1ccc(O)cc1)N1CCN(c2ccccc2Cl)CC1 [Compound 13, 1-(2-Chlorophenyl)-4-{[3--bis(4,hydroxyphenyl)methyl]isonicotinyl}piperazine]	> 1000
O=C(c1ccncc1C(c1ccc(O)cc1)c1ccc(O)cc1)N1CCN(c2cccc(Cl)c2)CC1 [Compound 18, 1-(3-Chlorophenyl)-4-{[3-bis(4-hydroxyphenyl)methyl]isonicotinyl}piperazine]	> 300
